Data as given in patent EP4759821A1, “CITRULLINATED SETDB1 POLYPEPTIDE AND USE THEREOF IN DIAGNOSIS OF RHEUMATOID ARTHRITIS” (Xiamen University, priority 2023, dated 2025).
Non-standard residues stand in square brackets, D forms with d. No end group written: not given here. Cit = NC(=O)NCCC[C@H](N)C(=O)O

System: autoantibodies against cit-4 (anti-citrullinated SETDB1 antibody)
Experiment: indirect ELISA of autoantibodies against biotin-conjugated citrullinated short polypeptides in serum
Assay type: binding, human
Description: The autoantibody expression levels of the citrulline markers were detected using an indirect ELISA method. In short, biotin-conjugated short polypeptides were first coated onto PABC plates at a concentration of 50 ng/well. After coating, serum from 24 rheumatoid arthritis (RA) patients and 24 healthy subjects (HC) were diluted 10-fold as primary antibodies and incubated for 30 minutes. HRP-labeled goat anti-human IgG (GAH-HRP) was used as secondary antibody, incubation was performed for 30 minutes, and color development and reading were finally carried out.
The expression level of citrulline marker autoantibodies in patients with rheumatoid arthritis was detected using an indirect ELISA method (see Example 1 for details). In addition, anti-citrullinated peptide antibody (CCP2) was used as a control. […]
The cit-4 antibody level was detected in a CCP2-negative patient population using an indirect ELISA method (see Example 1 for details).
The levels of citrullinated SETDB1 autoantibodies in the serum of patients with different autoimmune diseases (RA rheumatoid arthritis, SLE systemic lupus erythematosus, PSS primary Sjögren's syndrome, and SSc scleroderma) were detected using an indirect ELISA method (see Example 1 for details). […]

Sequence: NPLLVPLLYDFXXMTAXXXVNXK (NPLLVPLLYDF[Cit][Cit]MTA[Cit][Cit][Cit]VN[Cit]K; also: conjugated with biotin) [cit-4]
- level of autoantibodies in rheumatoid arthritis (Example 1, Fig. 1A, serum of 24 RA patients vs 24 healthy subjects (HC), diluted 10-fold, peptide coated 50 ng/well, GAH-HRP secondary antibody): significantly elevated
- level of citrullinated SETDB1 autoantibodies (Example 4, Fig. 4A, serum of patients with different autoimmune diseases (RA, SLE, PSS, SSc)): the highest in rheumatoid arthritis
